Assay results from patent publication US20250186566A1, “CELL-BASED VACCINES” (Arkea Bio Corp., priority 2023, published 2025).
Read-outs that look alike come from different tables or passages of the source. One block for each compound: values may come before it.

Legend:
cattle = settings: cited from earlier work
CH4 production = settings: cited from earlier work
[1] = 3NOP volatility (mass loss open to air); type: physicochemical; settings: 500 mg open to air, 18-24° C., 15-30% RH, 6 days
Procedure: 3NOP Volatility:500 mg of 3NOP in a 5 dram vial was left open to air at ˜18-24° C. at 15-30% RH over the course of 6 days. Average mass loss is ˜0.25% per day.

[2] = 3NOP to adsorbent ratio study; type: physicochemical; settings: distilled water at 1% 3NOP loading, 24 hr
Procedure: Optimal loading of 3NOP onto adsorbents was determined by varying ratios of 3NOP to adsorbent. 3NOP and adsorbent were speed mixed at 2000 rpm for 1 min. at the following ratios by weight: 1:1.5, 1:2, 1:2.5. The adsorbed 3NOP powder mixture was then placed in distilled water at 1% 3NOP loading. The solution was allowed to equilibrate for 24 hr and then an aliquot was taken for HPLC to determine the reduction in 3NOP concentration.

[3] = 3NOP pH and temperature stability (HPLC); type: physicochemical; settings: 1-month, 4-30° C., pH 4-10
Procedure: 3NOP pH and Temperature Stability: Confirmed via HPLC over a 1-month time period at temperature between 4-30° C. and pH 4-10.

sheep = settings: cited from earlier work
[4] = system: Mbb. Ruminantium, Ms. Mazei, and Mm. mobile; settings: cited from earlier work
[5] = Adsorbent study: binding affinity and adsorptive capacity for 3NOP (HPLC at 230 nm)
Source text: The solution was then placed in an ultrasonic bath for ˜4 hr and then allowed to equilibrate over 24 hr.

rumen methanogens = settings: cited from earlier work; for suppression of CH4: bacteriocins, in vitro
goats = settings: 10 g/day/goat; cited from earlier work
rumen Methanobrevibacter = settings: 5.6 μmol/L, in vitro; cited from earlier work
[6] = dairy cows, 40-80 mg/kg feed DM
[7] = 0.2 g of adsorbent in 10 mL of 1% 3NOP/H2O, after 24 hr, Control 8.258
[8] = beef cattle, fed at […] of DM intake

Compound: CC(CO)[N+](=O)[O-] (stereo not drawn) [2-nitropropanol]
lowering of CH4 production (cattle; steers): 37%

Compound: O=[N+]([O-])OCCCO [3-Nitrooxypropanol (NOP)]
maximum methane suppression amount (CH4 production; 0.08 mg/g dry matter (2019)): 0.08 mg/g dry matter; 44%
maximum methane suppression amount (CH4 production; 1.6 g, concentrate pellet): 23%
maximum methane suppression amount (CH4 production; 1.6 g, roughage): 28%

Compound: O=[N+]([O-])OCCCO [3NOP, 3-Nitrooxypropanol]
Average mass loss [1]: ~0.25 % per day
degree of CH4 suppression (cattle; added to the rumen through rumen cannula, 0.50 or 2.5 g per cow daily): 7-10%
decrease of CH4 yield (cattle; beef cattle, 2.0 g/day/cow): 59%
persistence of inhibition (cattle; beef cattle, 2.0 g/day/cow): up to 112 days
decrease of CH4 production (cattle; [6]): about 30%
persistence of decrease (cattle; [6]): up to 84 days
Average Integrated Area of 3NOP in solution ([2]; 3NOP:Adsorbent 1:1.5): 2566.4
Average Integrated Area of 3NOP in solution ([2]; 3NOP:Adsorbent 1:2): 2566.4
Average Integrated Area of 3NOP in solution ([2]; 3NOP:Adsorbent 1:2.5): 2566.4
pH and temperature stability [3]: Confirmed
decrease of CH4 production (sheep; 0.5 g/day): 29%

Compound: N=C(N)NCCC[C@H](N)C(=O)O [Arginine]
Average Integrated Area of 3NOP in solution ([2]; 3NOP:Adsorbent 1:1.5): 2406.0
Average Integrated Area of 3NOP in solution ([2]; 3NOP:Adsorbent 1:2): 2372.8
Average Integrated Area of 3NOP in solution ([2]; 3NOP:Adsorbent 1:2.5): 2435.2

Compound: ClCBr [BCM, bromochloromethane]
toxicity / residues (cattle; steers fed grain-based diets): no signs of toxicity or residues in meat

Compound: O=S(=O)(O)CCCBr [BPS, 3-bromopropanesulfonate]
sensitivity of methanogens ([4]; up to 250 μmol/L in pure cultures): resistant

3NOP concentration [5, 7]: 7.202 mM
Compound: C[N+](C)(C)CC(=O)O [Betaine]

Compound: O=C([O-])CC(O)(CC(=O)[O-])C(=O)[O-].[Bi+3] [Bismuth Citrate]
3NOP concentration [5, 7]: 8.072 mM

Compound: O=S(=O)([O-])[O-].O=S(=O)([O-])[O-].O=S(=O)([O-])[O-].[Bi+3].[Bi+3] [Bismuth Sulfate]
3NOP concentration [5, 7]: 8.079 mM

Compound: O=C(O)/C=C/c1ccc(O)c(O)c1 [Caffeic acid]
maximum suppression methane amount (CH4 production; 12 mM): 12 mM, Caffeic acid; 37.58%;

Compound: O=S(=O)([O-])[O-].[Cu+2] [Copper Sulfate]
3NOP concentration [5, 7]: 7.814 mM

Compound: N[C@@H](CCC(=O)O)C(=O)O [Glutamic acid]
Average Integrated Area of 3NOP in solution ([2]; 3NOP:Adsorbent 1:1.5): 2445.9
Average Integrated Area of 3NOP in solution ([2]; 3NOP:Adsorbent 1:2): 2452.5
Average Integrated Area of 3NOP in solution ([2]; 3NOP:Adsorbent 1:2.5): 2446.3

Compound: NC(=O)CC[C@H](N)C(=O)O [Glutamine]
3NOP concentration [5, 7]: 7.588 mM

Compound: NCCCC[C@H](N)C(=O)O [Lysine]
3NOP concentration [5]: 18.583 mM
Average Integrated Area of 3NOP in solution ([2]; 3NOP:Adsorbent 1:1.5): 2336.2
Average Integrated Area of 3NOP in solution ([2]; 3NOP:Adsorbent 1:2): 2308.9
Average Integrated Area of 3NOP in solution ([2]; 3NOP:Adsorbent 1:2.5): 2266.6

Compound: O=C(O)CC(O)C(=O)O (stereo not drawn) [Malate]
decrease of CH4 production (cattle; [8]): 16%
reduction of CH4 per unit of DM intake (cattle; [8]): 9%

Compound: O=[N+]([O-])CCO [NEOH]
maximum methane suppression amount (CH4 production; 10 mmol/L): 10 mmol/L; 96.7% (NE), 96.7%

Compound: CC[N+](=O)[O-] [NE]
maximum methane suppression amount (CH4 production; 10 mmol/L): 10 mmol/L; 96.7% (NE), 96.7%

Compound: CC(CO)[N+](=O)[O-] (stereo not drawn) [NPOH]
maximum methane suppression amount (CH4 production; 10 mmol/L): (NEOH), 41.7% (NPOH)

Compound: O=[N+]([O-])O [Nitrate]
maximum methane suppression amount (CH4 production; 5 mM (Liu et al., 2017)): 5 mM; 43.26% Liu et al., 2017)
maximum methane suppression amount (CH4 production; 5 mmol/L (Wu et al., 2019)): 5 mmol/L: 32.92%
maximum methane suppression amount (CH4 production; 20 mg/g dry matter (Alvarez-Hess et al. 2019)): 20 mg/g dry matter: 21%

Compound: ClC(Cl)Cl [chloroform]
duration of inhibition of methanogenesis (cattle; drenching to cattle): up to 32 days

Compound: O=C(O)/C=C/C(=O)O [fumarate]
decrease of CH4 production (rumen methanogens; 3.5 g/L, continuous fermenters with forages as a substrate): 38%
decrease of CH4 production (goats): 11.9%

Compound: CC[C@H](C)C(=O)O[C@H]1C[C@@H](C)C=C2C=C[C@H](C)[C@H](CC[C@@H]3C[C@@H](O)CC(=O)O3)[C@H]21 [lovastatin]
reduction of CH4 production (rumen methanogens; Rusitec, 150 mg/L): approximately 42%
reduction of total CH4 production by rumen methanogens (rumen methanogens; extracted from fermented rice straw, 48 h in vitro incubation): ~28%

Compound: O=c1[nH]c(=O)c2nccnc2[nH]1 [lumazin, 2,4-pteridinedione]
CH4 production by pure methanogen cultures ([4]; dose-dependent from 0.06 to 0.24 mmol/L): significantly decreased

Compound: CC[C@H](C)C(=O)O[C@H]1CCC=C2C=C[C@H](C)[C@H](CC[C@@H]3C[C@@H](O)CC(=O)O3)[C@H]21 [mevastatin]
growth of three strains of rumen Methanobrevibacter (rumen Methanobrevibacter): inhibited the growth

Compound: CC[C@@]1([C@@H]2O[C@@H]([C@H]3O[C@@](O)(CO)[C@H](C)C[C@@H]3C)C[C@@H]2C)CC[C@H]([C@]2(C)CC[C@]3(C[C@H](O)[C@@H](C)[C@@H]([C@@H](C)[C@@H](OC)[C@H](C)C(=O)O)O3)O2)O1 [monensin]
CH4 production by tropical cattle (cattle; 60 mg/day/cow): did not lower CH4 production
CH4 suppression (cattle; 10-15 ppm): no CH4 suppression
lowering of CH4 production (g/kg DM intake) (cattle; fed at 24-35 mg/kg diet): up to 10%
decrease of CH4 production (cattle; tropical cattle, 250 mg/day/cow): about 30%

Compound: CC[N+](=O)[O-] [nitroethane]
decrease of CH4 production (sheep; orally 24 mg/kg body weight daily for 5 days): up to 45%
decrease of CH4 production (sheep; orally 72 mg/kg body weight daily for 5 days): ≤ 69%

Compound: O=C(O)/C=C/c1ccc(O)cc1 [p-coumaric acid]
maximum suppression methane amount (CH4 production; 12 mM): p-coumaric acid; 28.33%

Compound: C#CC(=O)O [propynoic acid]
lowering of CH4 production (rumen methanogens; 6 mmol/L): 67%
lowering of CH4 production (rumen methanogens; 12 mmol/L): 78%

Compound: Oc1ccc(C=Cc2cc(O)cc(O)c2)cc1 [resveratrol]
maximum suppression methane amount (CH4 production; 25 mg, high-concentrate diets): high-concentrate diets; 41%
maximum suppression methane amount (CH4 production; 25 mg, high-forage diets): 25 mg, high-forage diets; 60%;

Compound: Bovicin HC5
suppression of CH4 (rumen methanogens): 50%

Compound: Cyclodextrin
3NOP concentration [5, 7]: 7.676 mM

Compound: Lactobacillus plantarum
maximum suppression methane amount (CH4 production; 5.3 lg cfu/g fresh weight, 72 h): Lactobacillus plantarum, 8.8 ml/g(72 h)

Compound: Nisin
suppression of CH4 (rumen methanogens): up to 40%
